Experimental data taken from patent publication US5145853A, “Bactericidal formulations for use in veterinary medicine” (Bayer Aktiengesellschaft, priority 1985, dated 1992).
≈ marks a conversion by molar mass, not a printed value. Where two headings read alike, the source gives them in different places.

How the values were obtained:
[1] = tested on: mycoplasmas mycopneumoniae; experiment: Treatment of mycoplasmoses in pigs; type: in vivo, piglets; details: lungs examined on the 34th day
Excerpt: Groups of 5 piglets with an average weight of 25 kg were fed with standard piglet feed from the beginning of the test, to which feed the stated quantities of active compound had been added.
On the 4th day after the beginning of the test, the animals were infected with mycoplasmas mycopneumoniae. As from the 10th day the animals were only given feed not containing any active compound. On the 34th day the animals were killed and the lungs were examined for lesions.

[2] = tested on: mycoplasma strain no. 6442; experiment: Mycoplasmas/Inhibitory concentration test, strain 6442; type: cell-based
Protocol: (§1) The test was carried out on microtiter plates. Series of concentrations of the active compound in 0.01 N soda solution were prepared. The concentrations were from 256 μg/ml to 0.0156 μg/ml.
(§2) 0.5 ml of an active compound solution are placed in each identation in the microtiter plate. To this 0.5 ml of an inoculum of mycoplasmas containing about 10^6 organisms per ml were added.
(§3) The inoculum consisted of a modified mycoplasma broth (PPLO) which contained about 20% of horse serum and in which mycoplasmas had been cultured to a titer of about 10^7 organisms per ml (determined by the MacCrady method).
(§4) Then the microtiter plate was incubated at 37° C. and the growth determined after 48, 72 and 96 hours. That concentration of active compound, which prevented any increase in the moculated mycoplasmas was taken as the MIC-value.

[3] = tested on: mycoplasma strain no. 8008; experiment: Mycoplasmas/Inhibitory concentration test, strain 8008; type: cell-based
Protocol: as §1, §2, §3, §4

[4] = tested on: mycoplasma strain no. 4587; experiment: Mycoplasmas/Inhibitory concentration test, strain 4587; type: cell-based
Protocol: as §1, §2, §3, §4

[5] = tested on: mycoplasma strain no. 348; experiment: Mycoplasmas/Inhibitory concentration test, strain 348; type: cell-based; details: NO.348, read-out: MIC value, mycoplasma strain no. 348
Protocol: as §1, §2, §3, §4

[6] = tested on: mycoplasma strain no. 7981; experiment: Mycoplasmas/Inhibitory concentration test, strain 7981; type: cell-based
Protocol: as §1, §2, §3, §4

mycoplasma gallisepticum = experiment: Treatment of mycoplasmoses in poultry; type: in vivo, chicken; details: for clinical symptoms: animals killed 19 days after infection; for Average weight of the animals after 14: after 14 days; for Average weight of the animals after 19: after 19 days; for Average weight of the animals after 0: day 0 (before treatment)
Protocol: Groups of 40 chicken which were free from mycoplasma gallisepticum and mycoplasma synoviae were infected at the second day after hatching with a pathogenic wild strain of mycoplasma gallisepticum. The treatment began 24 hours after the infection. One group of 40 chickens was not treated and served as a control. The chickens were treated via their drinking water at 5 successive days following the infection. 19 days after the infection the animals were killed, weighed and examined.

[7] = tested on: mycoplasma strain no. 81115; experiment: Mycoplasmas/Inhibitory concentration test, strain 81115; type: cell-based
Protocol: as §1, §2, §3, §4

[8] = 250 ppm in drinking water, 5 successive days
[9] = NO.6442, series 256 μg/ml to 0.0156 μg/ml, growth after 48, 72 and 96 hours, 37° C., read-out: MIC value, mycoplasma strain no. 6442
[10] = NO.8008, series 256 μg/ml to 0.0156 μg/ml, growth after 48, 72 and 96 hours, 37° C., read-out: MIC value, mycoplasma strain no. 8008
[11] = NO.4587, series 256 μg/ml to 0.0156 μg/ml, growth after 48, 72 and 96 hours, 37° C., read-out: MIC value, mycoplasma strain no. 4587
[12] = NO.7981, series 256 μg/ml to 0.0156 μg/ml, growth after 48, 72 and 96 hours, 37° C., read-out: MIC value, mycoplasma strain no. 7981
[13] = NO.81115, series 256 μg/ml to 0.0156 μg/ml, growth after 48, 72 and 96 hours, 37° C., read-out: MIC value, mycoplasma strain no. 81115
[14] = 500 ppm in drinking water, 5 successive days

## C=C[C@]1(C)C[C@@H](OC(=O)CSCCN(CC)CC)[C@]2(C)[C@H](C)CC[C@]3(CCC(=O)[C@H]32)[C@@H](C)[C@@H]1O [Tiamulin]
[1]; 200 mg/kg in the feed, control 10%
  result (lung lesions): 5%

## CCN1CCN(c2cc3c(cc2F)c(=O)c(C(=O)O)cn3C2CC2)CC1 [Compound I]
[2]; NO.6442, read-out: MIC value, mycoplasma strain no. 6442
  MIC: 0.15 µg/mL (≈ 0.417 µM)
[3]; NO.8008, read-out: MIC value, mycoplasma strain no. 8008
  MIC: 0.25 µg/mL (≈ 0.696 µM)
[1]; 50 mg/kg in the feed
  result (lung lesions): no lesions
[1]; 100 mg/kg in the feed
  result (lung lesions): no lesions
[4]; NO.4587, read-out: MIC value, mycoplasma strain no. 4587
  MIC: 0.5 µg/mL (≈ 1.39 µM)
[5]
  MIC: 0.5 µg/mL (≈ 1.39 µM)
[6]; NO.7981, read-out: MIC value, mycoplasma strain no. 7981
  MIC: 0.5 µg/mL (≈ 1.39 µM)
Mycoplasma gallisepticum; [8]
  clinical symptoms: none
  Average weight of the animals after 14: 355.7
  Average weight of the animals after 19: 463.8
Mycoplasma gallisepticum; 250 ppm in drinking water
  Average weight of the animals after 0: 47.3
[7]; NO.81115, read-out: MIC value, mycoplasma strain no. 81115
  MIC: 0.5 µg/mL (≈ 1.39 µM)

## CCn1cc(C(=O)O)c(=O)c2ccc(C)nc21 [nalidixic acid]
[2]; [9]
  MIC: 128 µg/mL (≈ 551 µM)
[3]; [10]
  MIC: 128 µg/mL (≈ 551 µM)
[4]; [11]
  MIC: 128 µg/mL (≈ 551 µM)
[5]
  MIC: 128 µg/mL (≈ 551 µM)
[6]; [12]
  MIC: 128 µg/mL (≈ 551 µM)
[7]; [13]
  MIC: 128 µg/mL (≈ 551 µM)

## Tylocin
Mycoplasma gallisepticum; [14]
  clinical symptoms: clearly noticeable
  Average weight of the animals after 14: 311.9
  Average weight of the animals after 19: 426.3
Mycoplasma gallisepticum; 500 ppm in drinking water, 5 successive days, groups of 40 chickens
  animals dead (clinical symptoms): no animals dead
Mycoplasma gallisepticum; 500 ppm in drinking water
  Average weight of the animals after 0: 48.4

## CC1CCc2cc(F)cc3c(=O)c(C(=O)O)cn1c23 (stereo not drawn) [flumequine]
[2]; [9]
  MIC: 256 µg/mL (≈ 980 µM)
[3]; [10]
  MIC: 256 µg/mL (≈ 980 µM)
[4]; [11]
  MIC: 256 µg/mL (≈ 980 µM)
[5]
  MIC: 256 µg/mL (≈ 980 µM)
[6]; [12]
  MIC: 256 µg/mL (≈ 980 µM)
[7]; [13]
  MIC: 256 µg/mL (≈ 980 µM)
